In PubChem BioAssay AID2060512 (Molecular Pharmacology Branch, DTP, NCI, 2025):
pIC50: −log10 of the molar value. Where “and” joins values, the source holds several entries; their conditions need not be identical. Identical values can stand only once.

Test system: 186277-243-T-J2-PDC complex spheroid viability
Test: Anticancer human tumor 186277-243-T-J2-PDC patient-derived colon adenocarcinoma cell line growth inhibition [GQUAD]
Settings: for viability, T/C: stronger effect = lower value
Description: DNA G-quadruplex Stabilizer Agents in Combinations in Complex Spheroids
A high-throughput screen of multi-cell type tumor spheroids was designed to identify active combinations of DNA G-quadruplex stabilizer agents and targeted small molecules. Complex spheroids include a stromal component modeled by human endothelial cells (HUVEC) and fibroblasts modeled by human mesenchymal stem cells (MSCs). The concentration ranges selected for each drug and investigational agent were based upon clinically achievable concentrations if the clinical Cmax of the agent was known.
Compounds. The drugs and investigational agents: pidnarulex (CX-5461; NSC782164), APTO-253 (NSC789042), BRACO-19 (NSC847499), peposertib (NSC802822), ceralasertib (NSC780249), elimusertib (NSC800525), camonsertib (NSC841442), AZD-1390 (NSC803789), olaparib (NSC753686), talazoparib (NSC767125), ART-558 (NSC835418), sotorasib (NSC818433), MRTX-1133 (NSC836407), SN-38 (NSC673596), topotecan (NSC609699), etoposide (NSC141540), doxorubicin (NSC123127), gemcitabine (NSC613327), 5-fluorouracil (NSC19893), paclitaxel (NSC125973), vemurafenib (NSC761431), panobinostat (NSC761190), R-306465 (JNJ-16241199; NSC773264), adavosertib (NSC754352), TP-3654 (NSC805149), carboplatin (NSC241240), KSQ-4279 (NSC840948), and staurosporine (NSC755774) were obtained from the National Cancer Institute (NCI) Developmental Therapeutics Program Chemical Repository (34). The FDA-approved anticancer drug set is available from the NCI Developmental Therapeutics Program. […] The stock solutions were prepared in dimethyl sulfoxide (DMSO, Sigma-Aldrich, St. Louis, MO, cat. D2650) at 800-fold the tested concentration and stored at -70 degrees C prior to their use. All drugs and investigational agents were tested over a range starting from a high concentration at or near the clinical Cmax and decreasing in half-log increments. If the clinical Cmax for an agent had not been determined, the highest concentration tested was 10 microM.
2.3 Cell Culture. All cells were maintained in an incubator at 37 degrees C and 5% CO2 with 95% humidity. The PDC lines were cultured according to standard operating procedures established by the NCI PDMR. All PDCs were thawed and cultured in Matrigel-coated flasks prepared with a working solution of 1X Ham's F-12 nutrient mix, without supplementation (Invitrogen, cat. 11765054), 100 U/mL penicillin-streptomycin (Invitrogen, cat. 15140122), and 2.5% Matrigel (Corning Inc., cat. 354248) for the first three passages. The 857933-349-R-J2-PDC line was cultured in 6C/Colon 1B media, which includes advanced DMEM/F-12 (Thermo Fisher Scientific, cat. 12634028), 10 mM HEPES (Thermo Fisher Scientific, cat. 15630080), 1X GlutaMAX supplement (Thermo Fisher Scientific, cat. 35050061), 0.1 mg/mL primocin (InvivoGen, cat. ant-pm-2), 10% defined fetal bovine serum, heat inactivated (HyClone Laboratories Inc., cat. SH30070.03HI), 50% L-WRN conditioned media (ATCC, cat. CRL-3276), 1.25 mM N-Acetyl-L-cysteine (Sigma-Aldrich, cat. A9165), 10 mM nicotinamide (Sigma-Aldrich, cat. N0636), 1X B-27 supplement (Thermo Fisher Scientific, cat. 17504044), 1X N-2 supplement (Thermo Fisher Scientific, cat. 17502048), 10 microM Y-27632 dihydrochloride (Tocris Bioscience, cat. 1254), and 50 ng/mL human EGF recombinant protein (Thermo Fisher Scientific, cat. PHG0311). The 485176-168-R4-J1-PDC line was cultured in Panc media, which includes all 6C/Colon 1B media components plus 100 ng/mL human FGF-10 (Thermo Fisher Scientific, cat. 100-26), 500 nM SB-431542 (Selleckchem, cat. S1067), and gastrin (Tocris, cat. 3006).
[…]
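Note: spheroids exposed to drugs for 7 days.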
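Throughout, for viability, T/C: 100% = DMSO vehicle control viability.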

With `C=CCn1c(=O)c2cnc(Nc3ccc(N4CCN(C)CC4)cc3)nc2n1-c1cccc(C(C)(C)O)n1` the viability, T/C (compound 0.0316 µM) was 117% and 101% and 93.2%, the viability, T/C (compound 0.1 µM) was 73.4% and 86.2% and 76.1% and the viability, T/C (compound 0.316 µM) was 13.5% and 16.9% and 22.7%. The viability, T/C (compound 1 µM) was 9.12% and 11.3% and 11.6%, the viability, T/C (compound 3.16 µM) was 8.45% and 9.04% and 11% and the viability, T/C (compound 10 µM) was 10.8% and 11.9% and 14.4%. The pIC50 (curve of compound) was 6.80 and 6.74 and 6.76.
In the case of `CC(C)n1c(=O)n(C)c2cnc3cc(F)c(-c4ccc(OCCCN5CCCCC5)nc4)cc3c21` + Cc1cnc(CNC(=O)c2c(=O)c3ccc(N4CCCN(C)CC4)nc3n3c2sc2ccccc23)cn1, the pIC50 (curve of first compound, second compound 0.0316 µM) was under 5.00, the pIC50 (curve of first compound, second compound 0.1 µM) was under 5.00 and the pIC50 (curve of first compound, second compound 0.316 µM) was 5.44. It also gave a pIC50 (curve of first compound, second compound 1 µM) of 6.84, a pIC50 (curve of first compound, second compound 3.16 µM) of over 7.50 and a pIC50 (curve of first compound, second compound 10 µM) of over 7.50. For the same compound, the viability, T/C (second compound 0.0316 µM, first compound 0.0316 µM) was 90.6%, the viability, T/C (second compound 0.0316 µM, first compound 0.1 µM) was 79.9% and the viability, T/C (second compound 0.0316 µM, first compound 0.316 µM) was 73.5%. For the same compound, the viability, T/C (second compound 0.0316 µM, first compound 1 µM) was 69.3%, the viability, T/C (second compound 0.0316 µM, first compound 3.16 µM) was 75% and the viability, T/C (second compound 0.0316 µM, first compound 10 µM) was 76.2%. It also gave a viability, T/C (second compound 0.1 µM, first compound 0.0316 µM) of 70.4%, a viability, T/C (second compound 0.1 µM, first compound 0.1 µM) of 54.4% and a viability, T/C (second compound 0.1 µM, first compound 0.316 µM) of 70.6%. The viability, T/C (second compound 0.1 µM, first compound 1 µM) was 73.1%, the viability, T/C (second compound 0.1 µM, first compound 3.16 µM) was 59.4% and the viability, T/C (second compound 0.1 µM, first compound 10 µM) was 46.5%. It also gave a viability, T/C (second compound 0.316 µM, first compound 0.0316 µM) of 67.8%, a viability, T/C (second compound 0.316 µM, first compound 0.1 µM) of 67.6% and a viability, T/C (second compound 0.316 µM, first compound 0.316 µM) of 48.8%. It also gave a viability, T/C (second compound 0.316 µM, first compound 1 µM) of 70.8%, a viability, T/C (second compound 0.316 µM, first compound 3.16 µM) of 46.5% and a viability, T/C (second compound 0.316 µM, first compound 10 µM) of 41.2%. For the same compound, the viability, T/C (second compound 1 µM, first compound 0.0316 µM) was 49.2%, the viability, T/C (second compound 1 µM, first compound 0.1 µM) was 46.3% and the viability, T/C (second compound 1 µM, first compound 0.316 µM) was 52.2%. The viability, T/C (second compound 1 µM, first compound 1 µM) was 54.8%, the viability, T/C (second compound 1 µM, first compound 3.16 µM) was 52.3% and the viability, T/C (second compound 1 µM, first compound 10 µM) was 42.5%. For the same compound, the viability, T/C (second compound 3.16 µM, first compound 0.0316 µM) was 43.7%, the viability, T/C (second compound 3.16 µM, first compound 0.1 µM) was 39.8% and the viability, T/C (second compound 3.16 µM, first compound 0.316 µM) was 49.5%. For the same compound, the viability, T/C (second compound 3.16 µM, first compound 1 µM) was 39.7%, the viability, T/C (second compound 3.16 µM, first compound 3.16 µM) was 40.6% and the viability, T/C (second compound 3.16 µM, first compound 10 µM) was 36.4%. It also gave a viability, T/C (second compound 10 µM, first compound 0.0316 µM) of 31.8%, a viability, T/C (second compound 10 µM, first compound 0.1 µM) of 47.5% and a viability, T/C (second compound 10 µM, first compound 0.316 µM) of 40%. It also gave a viability, T/C (second compound 10 µM, first compound 1 µM) of 39.7%, a viability, T/C (second compound 10 µM, first compound 3.16 µM) of 38.3% and a viability, T/C (second compound 10 µM, first compound 10 µM) of 35.6%.
